Measured values: ChEMBL document CHEMBL3352007, “Deoxyribonuclease inhibitors” (Eur J Med Chem, 2014)

Assays:
[1] = molecular target: T1, Deoxyribonuclease-1 (Homo sapiens, UniProt P24855); assay: Inhibition of DNase 1 (unknown origin)
T1 sequence (P24855 whole entry): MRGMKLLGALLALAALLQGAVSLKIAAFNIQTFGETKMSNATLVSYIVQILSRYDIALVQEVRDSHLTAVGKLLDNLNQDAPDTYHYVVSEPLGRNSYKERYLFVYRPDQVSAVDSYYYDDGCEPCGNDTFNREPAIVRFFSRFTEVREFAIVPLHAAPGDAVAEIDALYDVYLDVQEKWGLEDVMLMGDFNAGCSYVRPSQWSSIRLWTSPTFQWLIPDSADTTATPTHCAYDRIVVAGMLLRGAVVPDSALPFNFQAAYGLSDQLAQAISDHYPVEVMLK

[2] = molecular target: T1, Deoxyribonuclease-1; assay: Inhibition of DNase 1 (unknown origin) using (FAM)-labeled dsDNA as substrate

IC50 [1] [nM] | IC50 [2] [nM] | Compound
> 300000 | – | O=C(O)c1ccc(Nc2nc(Cl)nc(Cl)n2)cc1-c1c2ccc(=O)cc-2oc2cc(O)ccc12
– | 350 | CN(C)c1ccc(C(=C2C=CC(=[N+](C)C)C=C2)c2ccc(N(C)C)cc2)cc1 [GENTIAN VIOLET]
